Laboratory results reported in patent US20230382920A1, “SHMT Inhibitors” (The Trustees of Princeton University, priority 2020, published 2023).
pIC50: −log10 of the molar value. Where a name gives a salt, the structure may show the parent alone.

What was measured:
[1] = Mouse liver microsome assay (metabolic stability); assay type: in vitro ADME; conditions: mouse liver microsomes; for half-life at 2 µM: in vitro half-life; for microsomal CLint at 2 µM: in vitro intrinsic clearance, read-out: Relative Clint
Method: Example 6. Mouse Liver Microsome Assay
Metabolic stability of several compounds in mouse liver microsomes was tested. Briefly, a master solution was prepared according to Table 31.
Two separate experiments were performed: an experiment with cofactors and an experiment without cofactors. In the experiment with cofactors 40 μL of 10 mM NADPH and 40 μL of 20 mM UDPGA were added to the incubations. The final concentrations of microsomes, NADPH and UDPGA were 0.5 mg/mL, 1 mM and 2 mM, respectively. In the experiment without cofactors 10 μL of 20 mg/mL liver microsomes and 80 μL of ultra-pure H2O were added to the incubations. The final concentration of microsomes was 0.5 mg/mL. The mixture was pre-warmed at 37° C. for 5 minutes.
The reaction was started with the addition of 4 μL of 200 μM control compound or test compound solutions. Verapamil was used as positive control in this study. The final concentration of test compound was 2 μM and the final concentration of control compound was 1 μM. The incubation solution was incubated in water bath at 37° C.
Aliquots of 50 μL were taken from the reaction solution at 0.5, 5, 15, 30, 45 and 60 minutes. The reaction was stopped by the addition of five volumes of cold acetonitrile with IS (100 nM alprazolam, 200 nM caffeine and 100 nM tolbutamide). Samples were centrifuged at 3,220 g for 40 minutes. Aliquot of 100 μL of the supernatant was mixed with 100 μL of ultra-pure H2O and then subject to LC-MS/MS analysis.
All calculations were carried out using Microsoft Excel. Peak areas were determined from extracted ion chromatograms. The slope value, k, was determined by linear regression of the natural logarithm of the remaining percentage of the parent drug versus incubation time curve. The in vitro half-life (in vitro t½) was determined from the slope value:
Conversion of the in vitro t1/2(min) into the in vitro intrinsic clearance (in vitro CLint, in μL/min/mg protein) was done using the following equation (mean of duplicate determinations): […]

HCT116 [2] = experiment: HCT116 growth inhibition assay; assay type: cell-based; conditions: without formate
Method: (§1) Example 5. HCT116 Growth Inhibition and Formate Rescue Assays
(§2) 3,000 Cells were plated in each well of a 96-well plate with 80 μL of DMEM media supplemented with 10% dFBS, and incubated for 24 hours. Drugs with or without sodium formate (1 mM) were then added to each well to a final volume of 100 μL. Cell growth was measured as fluorescence intensity by resazurin after four days. In short, resazurin was added to each well to a final concentration of 10 μg·mL^−1. After incubation for one hour, fluorescence was measured by a Synergy HT plate reader (BioTek Instruments).

HCT116 [3] = experiment: HCT116 formate rescue assay (with sodium formate 1 mM); assay type: cell-based; conditions: Homo sapiens, HCT-116, 96 h, HCT116 growth
Method: as §1, §2

half-life at 2 µM [1] [min] | microsomal CLint at 2 µM [1] [µL/min/mg] | IC50 (HCT116 [2]) | pIC50 (HCT116 [3]) | Compound
10 to 20 | 70 to 100 | A″ | < 5.30 | Cc1n[nH]c2c1C(c1cc(C#CC3CN(C(=O)OC(C)(C)C)C3)cc(CO)c1)(C(C)C)C(C#N)=C(N)O2 (stereo not drawn) [KDG-0271, tert-butyl 3-[2-(3-[6-amino-5-cyano-4-isopropyl-3-methyl-1H-pyrano[2,3-c]pyrazol-4-yl]-5-(hydroxymethyl)phenyl)ethynyl]azetidine-1-carboxylate]
≥ 20 | ≤ 70 | B″ | > 7.00 | Cc1n[nH]c2c1C(c1cc(C#C[C@H]3CC[C@H](NC(=O)OC(C)(C)C)CC3)cc(CO)c1)(C(C)C)C(C#N)=C(N)O2 (stereo partly drawn) [KDG-0320, tert-butyl N-[(1r,4r)-4-[2-(3-[6-amino-5-cyano-4-isopropyl-3-methyl-1H-pyrano[2,3-c]pyrazol-4-yl]-5-(hydroxymethyl)phenyl)ethynyl]cyclohexyl]carbamate hydrochloride]
≥ 20 | ≤ 70 | B″ | < 5.30 | Cc1n[nH]c2c1C(c1cc(C#C[C@H]3C[C@@H](NC(=O)OC(C)(C)C)C3)cc(CO)c1)(C(C)C)C(C#N)=C(N)O2 (stereo partly drawn) [KDG-0388, tert-butyl N-[(1s,3s)-3-[2-(3-[6-amino-5-cyano-4-isopropyl-3-methyl-1H-pyrano[2,3-c]pyrazol-4-yl]-5-(hydroxymethyl)phenyl)ethynyl]cyclobutyl]carbamate]
